Where a name gives a salt, the structure may show the parent alone. Read-outs that look alike come from different tables or passages of the source.
Legend:
EAE in C57BL/6 mice = experiment: Experimental autoimmune encephalomyelitis (EAE), MOG 35-55; format: in vivo; details: separate experiment, same protocol, FIG. 3
Procedure: SSAO/VAP-1 is expressed on the endothelium of inflamed tissues/organs including brain and spinal cord. Its ability to support lymphocyte transendothelial migration may be an important systemic function of SSAO/VAP-1 in inflammatory diseases such as multiple sclerosis and Alzheimer's disease. An analysis of the use of SSAO inhibitors to treat inflammatory disease of the central nervous system (CNS) was performed through the use of an experimental autoimmune encephalomyelitis model (EAE) in C57BL/6 mice. EAE in rodents is a well-characterized and reproducible animal model of multiple sclerosis in human (Benson J. M. et al. (2000) J. Clin. Invest. 106:1031). Multiple sclerosis is a chronic immune-mediated disease of the CNS characterized by pachy perivenular inflammatory infiltrates in areas of demyelination and axonal loss. As an animal model, EAE can be induced in mice by immunization with encephalitogenic myelin antigens in the presence of adjuvant. The pathogenesis of EAE comprises presentation of myelin antigens to T cells, migration of activated T cells to the CNS, and development of inflammation and/or demyelination upon recognition of the same antigens.
Thirty female C57BL/6 mice were immunized subcutaneously (s.c). with myelin oligodendrocyte glycoprotein 35-55 (MOG peptide 35-55) in Complete Freund Adjuvant (CFA) on day 0, followed by i.p. injections of pertussis toxin (one pertussis toxin injection on day 0, a second pertussis toxin injection on day 2). Groups of 10 mice received either the allylamine compound mofegiline (AA, 10 mg/kg/dose, twice daily for 18 consecutive days), methotrexate (2.5 mg/kg/day, every other day (Mon., Weds., Fri.) till day 18) or vehicle control (twice/day for 18 consecutive days) all-starting from one day after the immunization and all administered i.p. Then animals were monitored for body weight, signs of paralysis and death according to a 0-5 scale of scoring system as follows: 1=limp tail or waddling gait with tail tonicity; 2=waddling gait with limp tail (ataxia); 2.5=ataxia with partial limb paralysis; 3=full paralysis of one limb; 3.5=full paralysis of one limb with partial paralysis of second limb; 4=full paralysis of two limbs; 4.5=moribund; 5=death. Results are shown in FIG. 2A, FIG. 2B, and FIG. 2C. […] (p=0.04 by repeated measure analysis to assess the treatment effect. Proper polynomial transformation, with the spacing corresponding to the collection days, was applied to test the time effect). Statistically significant differences in diseases severity between the AA and vehicle-treated groups, continued even after stopping compound administration and were observed until the end of the study (d25) .

SSAO = experiment: IC100 concentrations of SSAO inhibitors used in the adhesion assay; format: biochemical; details: FIG. 7 legend
Source text: FIG. 7 depicts the effect of blockage of SSAO/VAP-1 on binding between peripheral blood mononuclear cells (PBMCs) and high endothelial cells (HEC). FIG. 7A is a control experiment showing the effect of various compounds used for treatment on the adhesion of PBMCs to mock-transfected high endothelial cells; a non-treated control is included for comparison (MNT). FIG. 7B is a control experiment showing the effect of various compounds used for treatment on the adhesion of PBMCs to high endothelial cells transfected with VAP-1; a non-treated control is included for comparison (VNT).
These studies were repeated using the adhesion assay as described above to evaluate the inhibitors of the invention. Adhesion blockers used included an anti-human VAP-1 monoclonal antibody (Serotec, Oxford, UK), neuramidase (a sialidase, because SSAO/VAP-1 is a sialoglycoprotein; Sigma), and several function-blocking antibodies to rat adhesion molecules (CD31-PECAM, CD54-ICAM-1, […]-P Selectin). […] Antibodies (10 μg/ml) and neuramidase (5 mU) were incubated with the HECs for 30 min at 37° C.; excess antibody was washed away prior to the addition of the labeled PBMCs. Small-molecule inhibitors were pre-incubated the same way at IC100 concentrations, but the amounts present in the supernatant were not washed away to preserve the IC100 concentration during the adhesion step.

[1] = Acute toxicity studies in mice; format: in vivo; details: female, C57B1/6, mouse, in vivo, Day 7 values
Procedure: (§1) Intraperitoneal (i.p.) and intravenous (i.v.) LD50 values for the compounds of Examples 8 and 10, as well as mofegiline, the allylamine compound described in Example 18, were determined in mice. Six-week old C57B1/6 female mice were divided in groups of five and administered a single i.p or i.v. injection of compound dissolved in PBS (10-100 mg/kg in 100 ul i.v.; 30-500 mg/kg in 200 ul i.p.). Control groups were administered the same volume of PBS i.p. or i.v. Appearance and overt behavior were noted daily, and body weight was measured before compound administration (Day 1) and on Days, 3, 5 and 7. After seven days, animals were euthanized and their liver, spleen and kidneys weighted.
(§2) Acute toxicity effects for mofegiline included tremors (40 mg/kg i.v.; 100 mg/kg i.p.) and clonic convulsions and labored breathing (100 mg/kg i.v.; 200 mg/kg i.p.). […] All deaths occurred within 24 hours after drug administration. […] Thus, there is no indication of the cause of death for any of the compounds tested.

C57B1/6 female mice = experiment: Acute toxicity studies in mice; format: in vivo; details: for acute toxicity effects observed: 100 mg/kg i.v.; for dose causing convulsions and labored breathing: i.p. (see Table 2)
Procedure: as §1, §2

[2] = ip, single i.p. injection, read-out: LD50 intraperitoneal
[3] = iv, single i.v. injection, read-out: LD50 intravenous

Compound: C=C(CNN)c1ccccc1 [Example 2, Hydrochloride]
- development and severity of disease (EAE in C57BL/6 mice): clearly had a therapeutic effect
- IC100 (SSAO) (SSAO): 150 nM

Compound: C=C(CNN)c1ccc(F)cc1.Cl [Example 8, N-[2-(4′-fluorophenyl)-allyl]-hydrazine Hydrochloride]
- LD50 at 7 days [1, 2]: 350 mg/kg
- LD50 at 7 days [1, 3]: > 100 mg/kg
- acute toxicity effects observed (C57B1/6 female mice): only tremor
- dose causing convulsions and labored breathing (C57B1/6 female mice): greater than 350 mg/kg
- IC100 (SSAO) (SSAO): 250 nM

Compound: Cl.NNC/C(=C/F)c1ccccc1 [Example 10, (E)-1-fluoro-2-phenyl-3-hydrazinopropene Hydrochloride]
- LD50 at 7 days [1, 2]: 250 mg/kg
- LD50 at 7 days [1, 3]: > 100 mg/kg
- acute toxicity effects observed (C57B1/6 female mice): only tremor
- dose causing convulsions and labored breathing (C57B1/6 female mice): greater than 250 mg/kg

Source: patent US20050096360A1, “Inhibitors of semicarbazide-sensitive amine oxidase (SSAO) and VAP-1 mediated adhesion useful for treatment of diseases” (priority 2003, published 2005)
